Data on one molecule can be found in ChEMBL document CHEMBL1201862, “PubChem BioAssay data set” (2004).

In general, EC50 refers to the concentration at which the effect is half-maximal. The IC50 is the midpoint of a concentration-inhibition curve.

What all share (assay type): functional
The target of test [1] is T1, Protein RecA (Mycobacterium tuberculosis, UniProt P9WHJ3).
T1 sequence (P9WHJ3 whole entry): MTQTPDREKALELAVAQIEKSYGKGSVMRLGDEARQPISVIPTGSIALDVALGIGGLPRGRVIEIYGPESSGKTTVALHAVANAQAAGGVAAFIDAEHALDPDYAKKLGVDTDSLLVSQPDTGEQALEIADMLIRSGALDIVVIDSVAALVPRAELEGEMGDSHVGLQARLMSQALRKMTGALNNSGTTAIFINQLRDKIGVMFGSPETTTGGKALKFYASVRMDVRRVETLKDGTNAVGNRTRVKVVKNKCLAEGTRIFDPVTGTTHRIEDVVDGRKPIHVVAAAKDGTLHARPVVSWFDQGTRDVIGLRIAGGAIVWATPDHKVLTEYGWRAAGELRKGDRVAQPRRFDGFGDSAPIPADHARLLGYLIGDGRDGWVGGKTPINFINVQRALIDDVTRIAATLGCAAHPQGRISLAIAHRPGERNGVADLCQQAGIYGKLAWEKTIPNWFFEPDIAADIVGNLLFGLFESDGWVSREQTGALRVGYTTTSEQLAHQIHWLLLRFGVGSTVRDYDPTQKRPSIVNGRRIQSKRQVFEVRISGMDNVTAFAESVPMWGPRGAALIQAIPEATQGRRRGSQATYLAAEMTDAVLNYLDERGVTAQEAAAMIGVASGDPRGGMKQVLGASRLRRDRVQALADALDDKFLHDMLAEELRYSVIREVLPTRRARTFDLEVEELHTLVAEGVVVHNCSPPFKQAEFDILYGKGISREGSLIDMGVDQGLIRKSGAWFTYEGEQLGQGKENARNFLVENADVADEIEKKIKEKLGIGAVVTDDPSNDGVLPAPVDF
Briefly: Fluorescence Cell-Free Homogeneous Dose Retest to Identify Inhibitors of RecA-Intein Splicing Activity. [Related pubchem assays (depositor defined):AID2097, AID2223, AID489010, AID492950].

Test [2] addresses T2, Sentrin-specific protease 8 (Homo sapiens, UniProt Q96LD8).
T2 sequence (Q96LD8 whole entry): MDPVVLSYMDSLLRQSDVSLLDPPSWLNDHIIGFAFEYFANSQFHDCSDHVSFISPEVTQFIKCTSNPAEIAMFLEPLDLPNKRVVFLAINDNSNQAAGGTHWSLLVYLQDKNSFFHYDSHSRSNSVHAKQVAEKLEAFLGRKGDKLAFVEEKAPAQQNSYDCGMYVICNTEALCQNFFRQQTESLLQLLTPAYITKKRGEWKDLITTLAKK
The test can be described thus: inhibition of human SENP8 cleavage activity – biochemical, luminescence, SAR follow-up (AID 504501).

The target in test [3] is T3, Caspase-3 (Homo sapiens, UniProt P42574).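 Further: Dose-response selectivity test against caspase-3 for candidate inhibitors of sentrin-specific proteases (SENPs).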
T3 sequence (P42574 whole entry): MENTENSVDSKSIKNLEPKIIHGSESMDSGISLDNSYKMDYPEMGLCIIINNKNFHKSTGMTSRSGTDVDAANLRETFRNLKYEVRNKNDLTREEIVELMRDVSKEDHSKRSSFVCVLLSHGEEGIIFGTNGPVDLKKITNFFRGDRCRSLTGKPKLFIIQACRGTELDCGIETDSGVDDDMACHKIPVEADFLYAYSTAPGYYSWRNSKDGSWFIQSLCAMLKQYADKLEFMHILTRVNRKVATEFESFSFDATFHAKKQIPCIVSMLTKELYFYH

In test [4] the target is Ras and Rab interactor 1/Tyrosine-protein kinase ABL1 (Homo sapiens, UniProt P00519+Q13671).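 Further: biochemical TR-FRET dose-response test measuring inhibition of binding between Rin1 and Abl proteins.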
Sequence of Ras and Rab interactor 1/Tyrosine-protein kinase ABL1 (P00519 whole entry): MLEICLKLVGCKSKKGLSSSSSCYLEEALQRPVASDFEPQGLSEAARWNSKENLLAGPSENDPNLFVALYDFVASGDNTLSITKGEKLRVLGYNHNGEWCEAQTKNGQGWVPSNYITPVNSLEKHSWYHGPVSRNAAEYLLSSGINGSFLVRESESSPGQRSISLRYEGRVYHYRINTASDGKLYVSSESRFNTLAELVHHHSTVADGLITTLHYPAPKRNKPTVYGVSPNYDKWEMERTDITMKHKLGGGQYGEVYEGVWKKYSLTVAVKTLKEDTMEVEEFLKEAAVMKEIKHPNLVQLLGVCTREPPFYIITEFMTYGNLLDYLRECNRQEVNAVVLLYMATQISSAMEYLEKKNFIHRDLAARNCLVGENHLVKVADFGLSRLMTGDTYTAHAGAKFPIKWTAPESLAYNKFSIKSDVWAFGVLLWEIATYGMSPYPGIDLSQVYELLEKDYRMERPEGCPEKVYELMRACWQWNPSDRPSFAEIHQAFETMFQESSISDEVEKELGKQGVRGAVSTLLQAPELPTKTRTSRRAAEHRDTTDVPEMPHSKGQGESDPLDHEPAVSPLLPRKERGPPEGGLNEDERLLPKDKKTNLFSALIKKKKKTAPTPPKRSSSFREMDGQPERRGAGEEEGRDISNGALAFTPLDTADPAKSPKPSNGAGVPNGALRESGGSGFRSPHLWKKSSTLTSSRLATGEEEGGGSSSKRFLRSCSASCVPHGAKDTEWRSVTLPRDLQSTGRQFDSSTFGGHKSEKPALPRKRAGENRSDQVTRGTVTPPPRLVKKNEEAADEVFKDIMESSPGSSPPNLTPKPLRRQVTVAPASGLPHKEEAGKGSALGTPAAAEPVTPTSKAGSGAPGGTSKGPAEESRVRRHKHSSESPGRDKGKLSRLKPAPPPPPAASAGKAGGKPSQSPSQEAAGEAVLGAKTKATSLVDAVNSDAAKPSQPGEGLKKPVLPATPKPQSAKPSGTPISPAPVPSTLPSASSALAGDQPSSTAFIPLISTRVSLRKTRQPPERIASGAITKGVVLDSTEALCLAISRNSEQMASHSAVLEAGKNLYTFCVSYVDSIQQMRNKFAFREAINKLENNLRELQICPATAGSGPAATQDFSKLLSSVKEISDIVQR
Sequence of Ras and Rab interactor 1/Tyrosine-protein kinase ABL1 (Q13671 whole entry): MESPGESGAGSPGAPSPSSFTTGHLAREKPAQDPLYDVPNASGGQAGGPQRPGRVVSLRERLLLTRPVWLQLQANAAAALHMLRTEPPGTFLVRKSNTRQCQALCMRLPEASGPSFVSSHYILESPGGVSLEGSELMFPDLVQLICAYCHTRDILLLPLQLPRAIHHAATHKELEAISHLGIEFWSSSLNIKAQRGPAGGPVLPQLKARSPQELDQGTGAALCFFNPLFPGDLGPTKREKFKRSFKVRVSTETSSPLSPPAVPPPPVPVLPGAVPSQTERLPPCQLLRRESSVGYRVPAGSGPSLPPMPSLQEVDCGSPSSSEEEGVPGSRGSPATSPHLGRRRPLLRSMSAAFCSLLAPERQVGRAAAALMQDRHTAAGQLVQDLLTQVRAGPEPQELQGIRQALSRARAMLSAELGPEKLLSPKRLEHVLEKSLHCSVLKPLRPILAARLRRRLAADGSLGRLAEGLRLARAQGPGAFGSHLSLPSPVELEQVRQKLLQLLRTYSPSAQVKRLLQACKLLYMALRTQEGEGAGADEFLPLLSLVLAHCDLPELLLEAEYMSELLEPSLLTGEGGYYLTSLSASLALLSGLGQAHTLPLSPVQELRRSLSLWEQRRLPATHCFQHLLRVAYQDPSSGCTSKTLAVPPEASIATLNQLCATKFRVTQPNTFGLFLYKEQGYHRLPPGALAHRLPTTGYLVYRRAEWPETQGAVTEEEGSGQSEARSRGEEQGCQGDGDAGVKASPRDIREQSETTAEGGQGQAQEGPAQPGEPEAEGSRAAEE
Test [5] deals with T4, Sentrin-specific protease 6 (Homo sapiens, UniProt Q9GZR1).
T4 sequence (Q9GZR1 whole entry): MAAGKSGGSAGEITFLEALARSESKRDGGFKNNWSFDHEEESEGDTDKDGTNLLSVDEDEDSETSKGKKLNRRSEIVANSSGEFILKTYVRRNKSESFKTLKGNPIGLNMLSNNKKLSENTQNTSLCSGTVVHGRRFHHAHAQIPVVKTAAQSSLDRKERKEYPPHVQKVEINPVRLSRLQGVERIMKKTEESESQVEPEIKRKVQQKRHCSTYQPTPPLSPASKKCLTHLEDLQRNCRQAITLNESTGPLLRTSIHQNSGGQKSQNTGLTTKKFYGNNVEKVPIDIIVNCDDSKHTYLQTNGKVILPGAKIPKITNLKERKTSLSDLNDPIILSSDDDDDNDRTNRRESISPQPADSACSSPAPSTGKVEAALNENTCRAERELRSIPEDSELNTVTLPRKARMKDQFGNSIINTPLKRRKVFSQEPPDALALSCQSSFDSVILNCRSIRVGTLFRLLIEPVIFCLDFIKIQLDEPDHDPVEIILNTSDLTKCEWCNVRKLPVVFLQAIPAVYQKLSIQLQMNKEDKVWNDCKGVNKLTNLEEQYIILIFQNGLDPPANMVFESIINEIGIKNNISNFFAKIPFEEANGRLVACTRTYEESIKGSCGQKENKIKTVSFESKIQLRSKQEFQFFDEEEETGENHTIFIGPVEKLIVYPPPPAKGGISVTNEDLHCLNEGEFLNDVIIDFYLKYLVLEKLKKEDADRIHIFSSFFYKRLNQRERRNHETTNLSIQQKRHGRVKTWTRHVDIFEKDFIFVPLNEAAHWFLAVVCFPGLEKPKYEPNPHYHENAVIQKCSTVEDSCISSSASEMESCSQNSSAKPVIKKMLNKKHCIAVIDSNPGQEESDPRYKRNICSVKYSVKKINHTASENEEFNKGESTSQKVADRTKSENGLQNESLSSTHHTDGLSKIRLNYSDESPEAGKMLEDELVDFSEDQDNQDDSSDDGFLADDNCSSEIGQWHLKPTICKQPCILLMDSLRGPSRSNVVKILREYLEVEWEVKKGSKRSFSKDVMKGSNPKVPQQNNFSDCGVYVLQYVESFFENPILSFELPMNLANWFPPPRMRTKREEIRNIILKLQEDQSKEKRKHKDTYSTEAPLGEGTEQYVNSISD

The source made the active and inactive calls. For most assays here, no stated cut-off is given here; in the data, actives have a measured IC50 and inactives only a lower limit. Bounds are passed on as bounds.

As for `O=C(NN=c1c(=O)c2ccccc2c1=O)c1ccccc1`, the 50% effective concentration (EC50) in test [1] was 4.83 µM (active). For the same molecule, the half-inhibitory concentration (IC50) in test [2] was 19.8 µM (active); in test [3] it was > 100 µM (inactive); in test [4], > 73.5 µM (inactive); in test [5], 3.47 µM (active).
